Data from the supplement of paper PMC10307832.

Assays:
Assay in all cases: relative viability (nuclei count vs DMSO), 5 days (fraction); higher = more cells survive
[1] = compound: CC1=CC=C(C=C1)C(=O)CN2C3=C(CCCC3)SC2=N [Pifithrin_alpha] + C[C@]1(O)C[C@@H](c2nc(-c3ccc4ccc(-c5ccccc5)nc4c3)c3c(N)nccn32)C1 [Linsitinib] (partner 1 µM)
In short: (§1)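 Nuclei were stained with Hoechst during a one-step fixation (final 0.05% Triton X-100, 1% formaldehyde, 1 ug/ml Hoechst) carried out 5 days after dosing, then counted on 4× images. The cells, lung cancer lines in 1536-well plates, had been dosed by pin tool the day after seeding with one drug alone or a fixed anchor-drug dose plus five library-drug doses (not always all listed) in √10 steps. Relative viability is the nuclei count in treated wells divided by that in vehicle wells, and each value is the median of duplicate plates.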

[2] = compound: CC1=CC=C(C=C1)C(=O)CN2C3=C(CCCC3)SC2=N [Pifithrin_alpha] + N=C(N)NC(=N)NCCc1ccccc1 [Phenformin] (partner 250 µM)
In short: as §1

Bemcentinib + Dasatinib = compound: Nc1nc(Nc2ccc3c(c2)CC[C@@H](N2CCCC2)CC3)nn1-c1cc2c(nn1)-c1ccccc1CCC2 [Bemcentinib] + Cc1nc(Nc2ncc(C(=O)Nc3c(C)cccc3Cl)s2)cc(N2CCN(CCO)CC2)n1 [Dasatinib] (partner 0.075 µM)
In short: as §1

[3] = compound: CC1=CC=C(C=C1)C(=O)CN2C3=C(CCCC3)SC2=N [Pifithrin_alpha] + CC(C)C[C@H](NC(=O)[C@H](Cc1ccccc1)NC(=O)c1cnccn1)B(O)O [Bortezomib] (partner 0.002 µM)
In short: as §1

Cell Line	relative viability ([1]; first compound 1 µM)	relative viability ([1]; first compound 3.162 µM)	relative viability ([1]; first compound 10 µM)	relative viability ([1]; first compound 100 µM)	relative viability ([2]; first compound 1 µM)	relative viability ([2]; first compound 3.162 µM)	relative viability ([2]; first compound 10 µM)	relative viability ([2]; first compound 31.62 µM)	relative viability ([2]; first compound 100 µM)	relative viability (Bemcentinib + Dasatinib; first compound 0.04 µM)	relative viability (Bemcentinib + Dasatinib; first compound 0.1265 µM)	relative viability (Bemcentinib + Dasatinib; first compound 0.4 µM)	relative viability (Bemcentinib + Dasatinib; first compound 1.265 µM)	relative viability (Bemcentinib + Dasatinib; first compound 4 µM)	relative viability ([3]; first compound 1 µM)	relative viability ([3]; first compound 3.162 µM)	relative viability ([3]; first compound 10 µM)	relative viability ([3]; first compound 31.62 µM)	relative viability ([3]; first compound 100 µM)	relative viability ([1]; first compound 31.62 µM)
NCI-H1944	1.18	1.23	1.11	1.04	0.165	0.209	0.191	0.166	0.22	0.206	0.202	0.214	0.204	0.2	–	–	–	–	–	–
NCI-H1792	0.563	0.498	0.378	0.486	0.292	–	0.472	–	0.372	0.859	0.956	1.17	0.91	0.873	0.719	0.847	0.666	0.582	0.795	0.422
ABC-1	0.9	0.651	0.621	0.506	0.251	0.218	0.227	0.255	0.227	0.423	0.512	0.59	0.553	0.667	0.322	0.351	0.328	0.26	0.298	0.593
NCI-H1650	–	–	–	–	–	0.446	0.333	0.273	0.349	0.344	0.382	0.347	0.346	0.321	0.182	0.202	0.18	0.189	0.169	–
NCI-H1703	0.596	0.6	0.786	0.635	–	–	–	–	–	–	–	–	–	–	0.416	0.344	0.368	0.288	0.279	0.733
HCC-44	0.571	0.607	0.64	0.578	0.17	0.164	0.171	0.133	0.178	–	–	–	–	–	0.916	0.851	0.793	0.68	0.652	0.441
NCI-H522	–	–	–	–	0.736	0.63	0.65	0.673	0.693	0.768	0.975	0.886	0.844	0.829	–	–	–	–	–	–
NCI-H1623	–	–	–	–	0.556	0.619	0.556	0.465	0.561	0.51	0.504	0.528	0.639	0.473	–	–	–	–	–	–
SK-MES-1	1	1.01	0.93	0.921	0.571	0.67	0.659	0.474	0.571	0.303	0.416	0.384	0.477	0.426	–	–	–	–	–	0.737
NCI-H2170	–	–	–	–	0.411	0.41	0.376	0.321	0.358	0.485	0.664	0.603	0.477	0.589	–	–	–	–	–	–
LK-2	0.608	0.728	0.544	0.646	0.352	0.571	0.563	–	0.466	0.248	0.246	0.31	0.27	0.349	–	–	–	–	–	–
NCI-H1395	–	1.05	1.03	0.974	0.428	0.433	0.411	0.416	0.41	0.393	0.392	0.439	0.364	0.396	–	–	–	–	–	0.638
